Assay [1] concerns the target T1, Bruton's tyrosine kinase (Btk) (Bos taurus, UniProt Q3ZC95, DEL171-383/L542M/S543T/V555T/R562K/S564A/P565S).
T1 construct: PH-TH-kinase construct (residues 1 to 170 connected to residues 384 to 659)
It counts as binding.

Assay [2] deals with T2, Bruton's tyrosine kinase (Btk) (Bos taurus, UniProt Q3ZC95).
T2 construct: PH-TH module (residues 1 to 172)
The assay can be described thus: ITC. It counts as binding.

Assay [3] addresses PH-TH module of bovine Btk (residues 1 to 172) (bovine) (UniProt Q3ZC95). The assay can be described thus: not stated; preliminary studies; dimerization of the PH-TH module induced by IP6; dimer to monomers.
The target in assay [4] is T3, Bruton's tyrosine kinase (Btk) (Bos taurus, UniProt Q3ZC95, N24D/R28C).
T3 construct: PH-TH module (residues 1 to 172)
T3 sequence (Q3ZC95 1-172 N24D/R28C): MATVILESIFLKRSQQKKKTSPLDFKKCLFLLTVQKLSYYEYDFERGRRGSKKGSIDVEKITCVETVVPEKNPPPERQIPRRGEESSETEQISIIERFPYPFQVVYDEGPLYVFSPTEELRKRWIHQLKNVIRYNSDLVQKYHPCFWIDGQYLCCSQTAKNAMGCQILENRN
Description: ITC with the canonical-site mutant (also printed as R28C/N24D and R28C/N24E). It counts as binding.

Assay [5] has as its target T2, Bruton's tyrosine kinase (Btk). The assay can be described thus: ITC; crystal structure at […] Å; also activates full-length Btk (EC50 around […]). Type of assay: binding. A general note: Isothermal titration calorimetry measures the heat released or taken up as one component is titrated into another.
The target in assay [6] is Src-like module of mouse Btk (SH3-SH2-kinase module, residues 214 to 659) (mouse) (UniProt P35991). Description: cross-linking; peak B; disuccinimidyl glutarate and PAGE analysis; results not shown.
Assay [7] has the same target. The assay can be described thus: SEC; peak B from mono-Q, HiPrep S-200 16/60, 25 mM Tris·Cl pH 8.5, 25 mM NaCl, 5 mM DTT, 4°C.

The source of these data is paper PMC4384635, “Autoinhibition of Bruton's tyrosine kinase (Btk) and activation by soluble inositol hexakisphosphate” (eLife, 2015).

T2 sequence (Q3ZC95 1-172): as the sequence (Q3ZC95 1-172 N24D/R28C) above, with D24N, C28R counted along it
T1 sequence (Q3ZC95 entry or part of it DEL171-383/L542M/S543T/V555T/R562K/S564A/P565S): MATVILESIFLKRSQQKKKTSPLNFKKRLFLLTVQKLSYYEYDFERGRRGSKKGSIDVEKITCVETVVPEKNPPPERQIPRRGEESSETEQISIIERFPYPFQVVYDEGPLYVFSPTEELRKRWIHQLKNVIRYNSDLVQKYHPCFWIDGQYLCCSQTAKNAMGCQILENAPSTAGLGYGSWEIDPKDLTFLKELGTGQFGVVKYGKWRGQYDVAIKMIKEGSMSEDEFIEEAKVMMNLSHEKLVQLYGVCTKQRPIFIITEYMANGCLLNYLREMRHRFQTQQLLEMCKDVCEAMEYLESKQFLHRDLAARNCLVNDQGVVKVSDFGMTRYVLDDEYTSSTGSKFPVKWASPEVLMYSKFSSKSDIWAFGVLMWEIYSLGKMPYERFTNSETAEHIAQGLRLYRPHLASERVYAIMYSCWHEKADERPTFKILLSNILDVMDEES

`Cc1c(NC(=O)c2ccc(C(C)(C)C)cc2)cccc1-c1cn(C)c(=O)c(Nc2ccc(C(=O)N3CCOCC3)cc2)n1` [CGI1746]: in assay [1], the “crystal structure at 1.7 Å” value is “structure of the PH-TH-kinase with a bound ATP-competitive inhibitor (CGI1746”.

Usually Kd stands for the constant that tells how readily two partners part at equilibrium. Read a low Kd as higher affinity. In the case of `O=P(O)(O)O[C@H]1[C@H](O)[C@@H](OP(=O)(O)O)[C@H](OP(=O)(O)O)[C@@H](OP(=O)(O)O)[C@H]1O` [IP4, inositol tetrakisphosphate], the equilibrium dissociation constant (Kd) in assay [2] is 0.026 ± 0.006 µM.

The compound “PH-TH module of bovine Btk (residues 1 to 172) (from UniProt Q3ZC95 1-172) (domain or fragment)” displayed an equilibrium dissociation constant (Kd) in assay [3] of more than 100 µM.

On to `O=P(O)(O)O[C@H]1[C@H](OP(=O)(O)O)[C@@H](OP(=O)(O)O)[C@H](OP(=O)(O)O)[C@@H](OP(=O)(O)O)[C@H]1OP(=O)(O)O` [IP6, inositol hexakisphosphate], for which the Kd in assay [4] worked out at 4.76 ± 0.7 µM; in assay [5], 0.238 ± 0.032 µM.

By stoichiometry N is commonly meant a count of units in the complex or per binding partner. Regarding “Src-like module of mouse Btk (SH3-SH2-kinase module, residues 214 to 659) (from UniProt P35991 214-659) (domain or fragment)”, the stoichiometry N in assay [6] and in assay [7] was 2 throughout.
